{"source": "patent US20240199601A1", "about": "“QUINONE COMPOUND AND PHARMACEUTICAL USE THEREOF” (NANJING SHUPENG LIFE SCIENCE CO., LTD., priority 2021, published 2024)", "key": {"[1]": {"tested_on": "oxaliplatin-induced hyperalgesia", "assay": "Oxaliplatin chemotherapy pain model", "format": "in vivo, C57LB6 mice", "details": "40 mg/kg by gavage, oxaliplatin 3 mg/kg i.p., mice, Von Frey", "description": "A total of 30 10-week-old wild male C57LB6 mice were selected.\nOn DAY 0, the mice were allowed to adapt to the environment for 7 days first, basic mechanical pain thresholds were detected and were basically about 1-1.4 g, and a total of 30 mice were used in this test without abnormal mice.\nOn DAYS 1-5, the mice were randomly divided into 3 groups including a blank control group (n=10), a model control group (n=10) and an SP3101 group (40 mg/kg, n=10). The mice in the SP3101 group were administrated with an SP3101 aqueous solution by gavage, the mice in the model control group were administrated with double distilled water by gavage, and the mice in the model control group and the SP3101 group were administrated with oxaliplatin (3 mg/kg) by intraperitoneal injection 0.5 hour later. The same operations were continuously performed for 5 days. On DAY 5, the pain thresholds were detected by using Von Frey fibrils.\nOn DAYS 6-10, the mice were only administered with SP3101 and water by gavage.\nOn DAYS 11-15, the operations on DAYS 1-5 were repeated, and on DAY 11, the pain thresholds were detected by using Von Frey fibrils.\nOn DAYS 16-20, the mice were only observed, and on DAY 16 and DAY 20, the mechanical pain thresholds were detected."}, "[2]": {"tested_on": "movement of the mice in an open field", "assay": "Sedation test, open field test (OFT)", "format": "in vivo, B6 mice", "details": "single intraperitoneal injection 20 or 50 mg/kg, 2 hours after administration", "description": "A total of 15 12-week-old male B6 mice were selected and allowed to adapt to the environment for three days. The mice were randomly divided into 3 groups including: (1) a blank control group (n=5), (2) a low-dose SP3101 group at a dose of 20 mg/kg (n=5) and (3) a high-dose SP3101 group at a dose of 50 mg/kg (n=5). The mice were administered by intraperitoneal injection at a single dose according to the groups, where the mice in the blank control group were administered with an equal volume of normal saline by intraperitoneal injection. 2 hours after the administration, the mice were traced by a video tracking and detection system in an open field test (OFT), followed by behavioral evaluation."}, "[3]": {"tested_on": "inflammatory pain model with AMPK inhibited", "assay": "Long-acting analgesic mechanism: CFA pain model with AMPK inhibitor compound c", "format": "in vivo, SD rats", "details": "compound c (Dorsomorphin) into caudal vein half an hour before oral SP3101 20 mg/kg, rats", "description": "Similar to the modeling method in Activity Test 1, 100 uL of a complete Freund's adjuvant was injected into the soles of the left feet of SD rats with a body weight of 200-250 g, mechanical pain thresholds of the left feet were detected by an ALMEMO2490 data collector 24 hours later, and the rats with a pain threshold of greater than 15 were abandoned. On the second day of modeling, 100 μL of a compound c as an AMPK inhibitor (Dorsomorphin, CAS No.866405-64-3, CC, 0.4 mg/ml) was injected into the caudal vein of each rat, the rats were orally administered with SP3101 (20 mg/kg) half an hour later, and the pain thresholds were detected after 1.5 hours and 24 hours, respectively."}, "[4]": {"tested_on": "antioxidant transcription factor (Nrf2)", "assay": "Nrf2 expression in RAW264.7 cells (protein hybridization)", "format": "cell-based", "details": "different concentrations, 24 hours", "description": "RAW264.7 cells were inoculated into two six-well plates and enabled to grow to a density of about 90%, and SP3101 and SP3102 of different concentrations were added, respectively. 24 hours later, the cells were lysed with a radio immunoprecipitation assay (RIPA) lysis buffer, and the expression of proteins was detected by protein hybridization.\nPhosphorylation of serine at the 127th site of AMPK is used as an activation marker. […] It can be seen that the compounds, represented by the SP3101 and the SP3102, of the present invention are used as an AMPK agonist."}, "[5]": {"tested_on": "paclitaxel-induced hyperalgesia", "assay": "Paclitaxel chemotherapy pain model", "format": "in vivo, B6 mice", "details": "40 mg/kg by gavage once a day for 15 days, paclitaxel 4 mg/kg i.p. x4, mice, Von Frey 0.07 g and 0.4 g", "excerpt": "A total of 30 8- to 10-week-old male B6 mice were selected and allowed to adapt to the environment for three days.\nOn DAY 0, mechanical pain thresholds were detected by using Von Frey fibrils, the mice with abnormal pain thresholds were abandoned, and the basic pain thresholds were basically about 0.6-1.0 g. According to the basic pain thresholds, a pain threshold of 0.07 g was used in this test, and a pain threshold of 0.4 g was used in subsequent detection. Behaviors such as foot lifting and foot licking were identified as positive responses. […] The mice were randomly divided into the following groups: (1) a model control group (PC, n=10), (2) an SP3101 group administered at a dose of 40 mg/kg (n=10) by gavage and (3) a blank control group (NC). The mice in the model control group were administrated with double distilled water by gavage, the mice in the model control group and the SP3101 group were administrated with paclitaxel (4 mg/kg) by intraperitoneal injection 0.5 hour later, and the mice in the blank control group were administrated with normal saline by intraperitoneal injection. […] The first modeling day was determined as DAY 0. […] On DAY 0, 3, 7, 9, 14, 18 and 21, the mechanical pain thresholds were detected."}}}
{"compound": "O=C1C(=O)c2nc(O)cc(C(=O)O)c2-c2[nH]ccc21", "note": "[SP3101, 4,5-dioxo-4,5-dihydro-1H-pyrrolo[2,3-f]quinone-7-hydroxy-9-carboxylic acid]", "values": [{"measurement": "prevention of oxaliplatin-induced hyperalgesia", "setting": "[1]", "result": "obviously prevent oxaliplatin-induced hyperalgesia"}, {"measurement": "movement of the mice in an open field (sedative effect)", "setting": "[2]", "result": "obviously reduces movement of the mice in an open field"}, {"measurement": "long-acting (24 hours) analgesic effect while AMPK is inhibited", "setting": "[3]", "result": "eliminated"}, {"measurement": "short-acting (1.5 hours) analgesic effect while AMPK is inhibited", "setting": "[3]", "result": "not affected"}, {"measurement": "expression of antioxidant transcription factor (Nrf2)", "setting": "[4]", "result": "increased in a dose-dependent manner"}, {"measurement": "alleviation of paclitaxel-induced hyperalgesia", "setting": "[5]", "result": "obvious effect of alleviating the paclitaxel-induced hyperalgesia"}]}
